Data as given in US12162836B2, “N-acyl-{4-[(4-aryl-phenyl)sulfonylmethyl]piperidine} compounds and their therapeutic use” (Modern Biosciences Limited, priority 2019, dated 2024).

Assays:
CYP2D6 = CYP2D6 (Homo sapiens (Human), UniProt P10635); experiment: Human Cytochrome P450 Inhibition Assay (Bactosomes); type: in vitro ADME; conditions: recombinant Bactosomes, 10 minutes
Protocol: (§1) The ability of test compounds to inhibit five of the most relevant cytochrome P450 enzymes was measured by determination of the activity of cytochrome P450 enzymes in recombinant cytochrome preparations, called Bactosomes (Cypex Ltd, Dundee, Scotland UK DD2 1 NH), in the presence of a specific probe substrate. Bactosomes are a highly efficient and cost-effective source of recombinant CYP450s which have a higher specific activity of enzyme compared to other sources, such as liver microsomes. […] The following CYP450 isoforms were assayed: CYP1A2, CYP2C9, CYP2C19, CYP2D6 and CYP3A4. The study of CYP450 inhibition potential in Bactosomes is accepted as a valuable model permitting rapid prediction of potential drug-drug interactions in vivo (see, e.g., Weaver et al., 2003).
(§2) Bactosomes were obtained from a commercial source (Cypex, Scotland, UK). Test compounds were incubated with Bactosomes at 6 concentrations. Samples were incubated for 10 minutes, after which the reaction was stopped and the samples analysed by LC-MS/MS Multiple Reaction Monitoring (MRM) for the presence/amount of substrate probe.
(§3) CYP450 enzymes (final protein 75 pmol/mL for CYP1A2; 12.5 pmol/mL for CYP2C19; and 25 pmol/mL for CYP2C9, 2D6 and 3A4), 0.1 M phosphate buffer pH 7.4, probe and test compound (final concentration 50, 15.8, 5, 1.58, 0.5 and 0.158 μM; diluted from 10 mM stock solution to give a final DMSO concentration of 1%) were pre-incubated at 37° C. for 5 minutes. The reaction was initiated by the addition of 20 μL of 10 mM NADPH in phosphate buffer. The final incubation volume was 200 μL. The following control inhibitors were used for each CYP450 inhibition assay: CYP1A2: α-naphthoflavone; CYP2C9: sulfaphenazole; CYP2C19: tranylcypromine; CYP2D6: quinidine; CYP3A4: ketoconazole.
(§4) Each compound was incubated for 10 minutes at 37° C. The reactions were stopped by the addition of methanol (final composition 1:1, aqueous: methanol). The incubation plates were shaken, chilled at […] for 2 hours, and centrifuged at 3500 rpm for 15 minutes at 4° C. to precipitate the protein.

CYP2C19 = CYP2C19 (Homo sapiens (Human), UniProt P33261); experiment: as above; type: in vitro ADME; conditions: recombinant Bactosomes, 10 minutes
Chain of CYP2C19 (P33261 whole entry): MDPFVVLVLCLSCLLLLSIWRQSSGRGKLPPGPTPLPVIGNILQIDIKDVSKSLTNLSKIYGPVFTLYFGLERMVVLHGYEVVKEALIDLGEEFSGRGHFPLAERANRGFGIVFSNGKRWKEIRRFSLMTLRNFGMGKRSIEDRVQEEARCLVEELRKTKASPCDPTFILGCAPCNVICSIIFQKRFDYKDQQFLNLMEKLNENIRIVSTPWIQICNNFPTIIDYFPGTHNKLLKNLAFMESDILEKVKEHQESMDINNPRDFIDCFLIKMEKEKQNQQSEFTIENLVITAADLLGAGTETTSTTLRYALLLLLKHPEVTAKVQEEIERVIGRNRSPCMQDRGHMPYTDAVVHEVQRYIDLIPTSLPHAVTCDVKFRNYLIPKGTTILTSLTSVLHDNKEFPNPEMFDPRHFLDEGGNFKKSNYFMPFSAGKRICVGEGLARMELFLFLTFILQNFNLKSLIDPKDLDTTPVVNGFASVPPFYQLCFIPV
Protocol: as §1, §2, §3, §4

CYP2C9 = CYP2C9 (Homo sapiens (Human), UniProt P11712); experiment: as above; type: in vitro ADME; conditions: recombinant Bactosomes, 10 minutes
Chain of CYP2C9 (P11712 whole entry): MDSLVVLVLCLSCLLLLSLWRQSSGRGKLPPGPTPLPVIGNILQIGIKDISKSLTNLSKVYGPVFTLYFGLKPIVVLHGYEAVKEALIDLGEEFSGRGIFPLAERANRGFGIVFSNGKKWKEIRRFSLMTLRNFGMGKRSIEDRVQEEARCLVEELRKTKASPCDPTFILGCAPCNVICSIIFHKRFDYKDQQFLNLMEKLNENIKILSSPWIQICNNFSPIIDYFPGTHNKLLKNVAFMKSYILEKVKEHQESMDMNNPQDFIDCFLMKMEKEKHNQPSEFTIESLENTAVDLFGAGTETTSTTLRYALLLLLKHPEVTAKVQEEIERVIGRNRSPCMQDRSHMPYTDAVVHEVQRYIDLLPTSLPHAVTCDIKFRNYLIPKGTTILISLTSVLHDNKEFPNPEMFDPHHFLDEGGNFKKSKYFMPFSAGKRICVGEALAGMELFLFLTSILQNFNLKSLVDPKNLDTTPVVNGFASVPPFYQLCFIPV
Protocol: as §1, §2, §3, §4

CYP3A4 = CYP3A4 (Homo sapiens (Human), UniProt P08684); experiment: as above; type: in vitro ADME; conditions: recombinant Bactosomes, 10 minutes
Chain of CYP3A4 (P08684 whole entry): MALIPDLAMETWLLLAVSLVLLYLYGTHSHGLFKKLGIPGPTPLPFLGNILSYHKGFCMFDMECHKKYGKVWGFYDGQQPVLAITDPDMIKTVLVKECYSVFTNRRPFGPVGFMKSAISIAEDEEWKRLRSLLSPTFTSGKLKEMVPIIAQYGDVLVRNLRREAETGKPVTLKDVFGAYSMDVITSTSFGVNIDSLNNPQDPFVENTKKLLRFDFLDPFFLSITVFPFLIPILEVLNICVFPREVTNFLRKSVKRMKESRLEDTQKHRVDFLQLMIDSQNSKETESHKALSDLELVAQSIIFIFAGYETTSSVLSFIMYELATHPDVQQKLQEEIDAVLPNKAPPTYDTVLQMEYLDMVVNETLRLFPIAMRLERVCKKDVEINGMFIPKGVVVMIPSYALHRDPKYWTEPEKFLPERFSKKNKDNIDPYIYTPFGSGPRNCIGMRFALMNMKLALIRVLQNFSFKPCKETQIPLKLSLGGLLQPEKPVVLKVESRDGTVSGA
Protocol: as §1, §2, §3, §4

CYP1A2 = CYP1A2 (Homo sapiens (Human), UniProt P05177); experiment: as above; type: in vitro ADME; conditions: recombinant enzyme
Chain of CYP1A2 (P05177 whole entry): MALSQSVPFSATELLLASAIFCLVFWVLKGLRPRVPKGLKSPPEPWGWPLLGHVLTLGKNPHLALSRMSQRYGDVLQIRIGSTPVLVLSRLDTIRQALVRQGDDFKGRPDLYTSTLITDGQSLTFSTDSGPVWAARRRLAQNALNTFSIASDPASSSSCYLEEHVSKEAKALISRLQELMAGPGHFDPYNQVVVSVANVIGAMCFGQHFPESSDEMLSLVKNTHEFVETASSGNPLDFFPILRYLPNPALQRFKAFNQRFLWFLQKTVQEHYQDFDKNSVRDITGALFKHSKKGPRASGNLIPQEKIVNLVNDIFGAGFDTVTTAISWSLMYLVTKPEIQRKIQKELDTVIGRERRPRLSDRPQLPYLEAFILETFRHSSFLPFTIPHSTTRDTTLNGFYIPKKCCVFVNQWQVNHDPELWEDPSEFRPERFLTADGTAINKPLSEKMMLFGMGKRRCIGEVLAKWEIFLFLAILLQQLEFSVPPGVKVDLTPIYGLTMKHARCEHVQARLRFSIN
Protocol: as §1, §2, §3, §4

[1] = Rodent Pharmacokinetics Studies; type: in vivo, rat; conditions: rats
Excerpt: Absorption and metabolic stability were studied using an in vivo pharmacokinetics assay.
[…] Test compounds were formulated in 0.5% carboxymethylcellulose (CMC)/0.1% Tween-80 for administration via the oral route, or in 5% DMSO/10% solutol in saline for administration via the intravenous route. For compound HMC-C-01-A the oral administration was formulated in 2% dimethylacetamide/20% hydroxypropyl-β-cyclodextrin in water. Animals were given free access to food throughout the study except for fasting overnight and until 2 hours post dose on the day of dosing.
Blood samples were taken from the retro-orbital plexus at the following time points and placed in microtubes containing 20% K2EDTA solution:
Oral Dosing: predose; 0.25, 0.5, 1, 2, 4, 6, 8, 12 and 24 hours post dose.
Blood samples were centrifuged to obtain plasma, which was transferred to a separate container and frozen at −20° C.
For analysis, samples were thawed at room temperature and prepared by protein precipitation with acetonitrile spiked with internal standard (500 ng/mL glipizide) in the ratio 1:4 with plasma.
The pharmacokinetic parameters for the test compounds were calculated by Phoenix WinNonlin version 8.0 (Certara, CA) using standard non-compartmental methods. Peak plasma concentrations (Cmax) and time of the peak plasma concentration (Tmax) were the observed values. The area under the plasma concentration-time curve (AUC) was determined by use of the linear trapezoidal rule up to the last measurable concentration (AUClast) and thereafter by extrapolation of the terminal elimination phase to infinity (AUCinf). The elimination phase half-life (t1/2) was calculated as 0.693/kel.

Chain of CYP2D6 (P10635 whole entry, canonical isoform): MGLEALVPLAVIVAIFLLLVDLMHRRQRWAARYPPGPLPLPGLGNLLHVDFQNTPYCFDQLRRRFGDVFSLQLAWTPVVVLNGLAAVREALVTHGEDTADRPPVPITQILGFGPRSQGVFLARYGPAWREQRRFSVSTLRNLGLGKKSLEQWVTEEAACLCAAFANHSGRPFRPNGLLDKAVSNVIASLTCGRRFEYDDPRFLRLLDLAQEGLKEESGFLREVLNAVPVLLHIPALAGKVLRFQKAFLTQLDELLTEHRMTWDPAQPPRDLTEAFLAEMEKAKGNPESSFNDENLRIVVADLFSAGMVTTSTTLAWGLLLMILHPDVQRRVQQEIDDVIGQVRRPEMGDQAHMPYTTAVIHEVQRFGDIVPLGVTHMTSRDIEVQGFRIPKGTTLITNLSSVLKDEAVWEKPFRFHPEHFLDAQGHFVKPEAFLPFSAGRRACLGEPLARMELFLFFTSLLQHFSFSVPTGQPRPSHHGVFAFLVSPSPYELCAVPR

IC50 (CYP2D6) [µM]	IC50 (CYP2C19) [µM]	IC50 (CYP2C9) [µM]	IC50 (CYP3A4) [µM]	IC50 (CYP1A2) [µM]	T1/2 ([1]; 5% DMSO/10% solutol in saline both routes (footnote 1)) [min]	Bioavail, F ([1]; 5% DMSO/10% solutol in saline for both oral and intravenous routes (footnote 1)) [%]	i.v. AUC ([1]; intravenous, 5% DMSO/10% solutol in saline (footnote 1)) [ng/mL/min]	p.o. AUC ([1]; oral, 5% DMSO/10% solutol in saline (footnote 1)) [ng/mL/min]	Compound
> 50	> 50	34	33	23					CC1(O)CCC(NS(=O)(=O)c2ccc(-c3ccc(C#N)cc3Cl)cc2)CC1 (stereo not drawn) [HMC-C-09-A, reference compound]
> 16	8.5	2.4	9.2	> 16					CC1(O)CCC(NS(=O)(=O)c2ccc(-c3cc(F)c(F)cc3F)cc2)CC1 (stereo not drawn) [HMC-C-10-B, reference compound]
9.3	5.1	2.7	12	11					CC1(O)CCC(NS(=O)(=O)c2ccc(-c3ccc(Cl)cc3C#N)c(Cl)c2)CC1 (stereo not drawn) [HMC-C-11-A, reference compound]
> 50	> 50	27	> 50	36	48	88	891	3937	CC1(O)CCC(NS(=O)(=O)c2ccc(-c3ncc(Cl)cc3C#N)cc2)CC1 (stereo not drawn) [HMC-N-05-A, reference compound]
